Results from the supplement of paper PMC8633005.

What was measured:
Assay in all cases: drug sensitivity score (DSS) (DSS (unitless, 0-50 scale)); higher = more sensitive (stronger viability inhibition); extreme values may be limits of the assay
Conditions in all cases: 72 h; culture: 2D
Bowes = tested on: Bowes
Outline: (§1)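 Viability was measured by CellTiter-Glo luminescence after 72 h at 37 °C in 384-well plates holding a 527-compound oncology library, with patient-derived melanoma cultures (1000–1500 cells per well) and melanoma cell lines grown in 2D. Every compound was tested at five concentrations spanning a 10,000-fold range. The drug sensitivity score, a modified area under the curve, came from dose-response curves fitted with in-house Breeze software.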

FM-MEL-2 = tested on: FM-MEL-2
Outline: as §1

FM-MEL-3 = tested on: FM-MEL-3
Outline: as §1

FM-MEL-6 = tested on: FM-MEL-6
Outline: as §1

SK-MEL-28 = tested on: SK-MEL-28
Outline: as §1

SK-MEL-2 = tested on: SK-MEL-2
Outline: as §1

WM165 = tested on: WM165
Outline: as §1

WM852 = tested on: WM852
Outline: as §1

Work on `COc1ccc(COc2cc3oc(=O)c4cc(C(C)O)ccc4c3cc2OC)cc1` (configuration not stated) [Palomid-529] yielded a drug sensitivity score (Bowes) of 0, a drug sensitivity score (FM-MEL-2) of 0.1 and a drug sensitivity score (FM-MEL-3) of 0.7. It also gave a drug sensitivity score (FM-MEL-6) of 0.1, a drug sensitivity score (SK-MEL-28) of 0 and a drug sensitivity score (SK-MEL-2) of 0. The drug sensitivity score (WM165) was 0 and the drug sensitivity score (WM852) was 0.

`Nc1nc2cc(-c3ccc4ncc(C(=O)N5CCOCC5)n4c3)ccc2o1` [Serabelisib] gave a drug sensitivity score (Bowes) of 0, a drug sensitivity score (FM-MEL-2) of 0.5 and a drug sensitivity score (FM-MEL-3) of 0.3. It also gave a drug sensitivity score (FM-MEL-6) of 0, a drug sensitivity score (SK-MEL-28) of 0 and a drug sensitivity score (SK-MEL-2) of 0. It also gave a drug sensitivity score (WM165) of 0.1 and a drug sensitivity score (WM852) of 0.

For `CO[C@@H]1[C@H](N(C)C(=O)c2ccccc2)C[C@H]2O[C@]1(C)n1c3ccccc3c3c4c(c5c6ccccc6n2c5c31)C(=O)NC4` [Midostaurin], the drug sensitivity score (Bowes) was 5.1, the drug sensitivity score (FM-MEL-2) was 3.5 and the drug sensitivity score (FM-MEL-3) was 5.4. The drug sensitivity score (FM-MEL-6) was 2.3, the drug sensitivity score (SK-MEL-28) was 4.3 and the drug sensitivity score (SK-MEL-2) was 2.9. The drug sensitivity score (WM165) was 14.6 and the drug sensitivity score (WM852) was 8.1.

`CCCCNc1ncc(C(=O)NCc2ccc(-n3ccnc3)cc2)c(NC2CCC(O)CC2)n1` (configuration not stated) [UNC2881] gave a drug sensitivity score (Bowes) of 0, a drug sensitivity score (FM-MEL-2) of 2.2 and a drug sensitivity score (FM-MEL-3) of 0. For the same compound, the drug sensitivity score (FM-MEL-6) was 0, the drug sensitivity score (SK-MEL-28) was 0 and the drug sensitivity score (SK-MEL-2) was 0. It also gave a drug sensitivity score (WM165) of 0 and a drug sensitivity score (WM852) of 0.

Compound `C=CCc1cccc(/C=N/NC(=O)CN2CCN(Cc3ccccc3)CC2)c1O` [PAC-1] has a drug sensitivity score (Bowes) of 1.6, a drug sensitivity score (FM-MEL-2) of 0 and a drug sensitivity score (FM-MEL-3) of 0. For the same compound, the drug sensitivity score (FM-MEL-6) was 0, the drug sensitivity score (SK-MEL-28) was 1.5 and the drug sensitivity score (SK-MEL-2) was 0. For the same compound, the drug sensitivity score (WM165) was 3.4 and the drug sensitivity score (WM852) was 2.8.

Compound `N#Cc1ccc(COC[C@H]2O[C@@H](n3c(NCc4ccc(Cl)c(Cl)c4)nc4c(N)ncnc43)[C@H](O)[C@@H]2O)cc1` has a drug sensitivity score (Bowes) of 2.7, a drug sensitivity score (FM-MEL-2) of 4.2 and a drug sensitivity score (FM-MEL-3) of 6.8. The drug sensitivity score (FM-MEL-6) was 1, the drug sensitivity score (SK-MEL-28) was 5.5 and the drug sensitivity score (SK-MEL-2) was 0. For the same compound, the drug sensitivity score (WM165) was 5.1 and the drug sensitivity score (WM852) was 0.

With `CCCS(=O)(=O)Nc1ccc(F)c(C(=O)c2c[nH]c3ncc(-c4ccc(Cl)cc4)cc23)c1F` [Vemurafenib] the drug sensitivity score (Bowes) was 2.4, the drug sensitivity score (FM-MEL-2) was 0 and the drug sensitivity score (FM-MEL-3) was 0. For the same compound, the drug sensitivity score (FM-MEL-6) was 0, the drug sensitivity score (SK-MEL-28) was 13.5 and the drug sensitivity score (SK-MEL-2) was 0. It also gave a drug sensitivity score (WM165) of 10.2 and a drug sensitivity score (WM852) of 0.

Compound `CC[C@H](C)C(=O)O[C@H]1C[C@@H](C)C=C2C=C[C@H](C)[C@H](CC[C@@H]3C[C@@H](O)CC(=O)O3)[C@H]21` [Lovastatin] has a drug sensitivity score (Bowes) of 2.1, a drug sensitivity score (FM-MEL-2) of 0 and a drug sensitivity score (FM-MEL-3) of 0.1. For the same compound, the drug sensitivity score (FM-MEL-6) was 0, the drug sensitivity score (SK-MEL-28) was 0 and the drug sensitivity score (SK-MEL-2) was 0. It also gave a drug sensitivity score (WM165) of 1.8 and a drug sensitivity score (WM852) of 0.6.

`N#CCNC(=O)c1ccc(-c2ccnc(Nc3ccc(N4CCOCC4)cc3)n2)cc1` [Momelotinib] showed a drug sensitivity score (Bowes) of 4.1, a drug sensitivity score (FM-MEL-2) of 3.7 and a drug sensitivity score (FM-MEL-3) of 1.2. The drug sensitivity score (FM-MEL-6) was 1.1, the drug sensitivity score (SK-MEL-28) was 3.7 and the drug sensitivity score (SK-MEL-2) was 0.2. It also gave a drug sensitivity score (WM165) of 7.2 and a drug sensitivity score (WM852) of 1.9.

`CNC(=O)[C@@H](NC(=O)[C@H](CC(C)C)[C@H](O)C(=O)NO)C(C)(C)C` [Marimastat] was tested, and the drug sensitivity score (Bowes) was 0, the drug sensitivity score (FM-MEL-2) was 0 and the drug sensitivity score (FM-MEL-3) was 0. The drug sensitivity score (FM-MEL-6) was 0, the drug sensitivity score (SK-MEL-28) was 0 and the drug sensitivity score (SK-MEL-2) was 0. The drug sensitivity score (WM165) was 0.6 and the drug sensitivity score (WM852) was 0.

`CC(C)c1cc(-c2n[nH]c(=O)n2-c2ccc3c(ccn3C)c2)c(O)cc1O` [Ganetespib] was tested, and the drug sensitivity score (Bowes) was 15.2, the drug sensitivity score (FM-MEL-2) was 11.2 and the drug sensitivity score (FM-MEL-3) was 21. The drug sensitivity score (FM-MEL-6) was 7, the drug sensitivity score (SK-MEL-28) was 8.5 and the drug sensitivity score (SK-MEL-2) was 12.8. For the same compound, the drug sensitivity score (WM165) was 17.1 and the drug sensitivity score (WM852) was 9.9.

`Cc1cc(Nc2cc(N3CCN(C)CC3)nc(Sc3ccc(NC(=O)C4CC4)cc3)n2)n[nH]1` [Tozasertib] gave a drug sensitivity score (Bowes) of 11.7, a drug sensitivity score (FM-MEL-2) of 1.9 and a drug sensitivity score (FM-MEL-3) of 4.5. For the same compound, the drug sensitivity score (FM-MEL-6) was 2.7, the drug sensitivity score (SK-MEL-28) was 5.1 and the drug sensitivity score (SK-MEL-2) was 2.8. The drug sensitivity score (WM165) was 12.8 and the drug sensitivity score (WM852) was 3.5.

`NC(=O)c1cccc2cn(-c3ccc([C@@H]4CCCNC4)cc3)nc12` [Niraparib] gave a drug sensitivity score (Bowes) of 0, a drug sensitivity score (FM-MEL-2) of 1.4 and a drug sensitivity score (FM-MEL-3) of 0. The drug sensitivity score (FM-MEL-6) was 0, the drug sensitivity score (SK-MEL-28) was 0 and the drug sensitivity score (SK-MEL-2) was 0. The drug sensitivity score (WM165) was 6.9 and the drug sensitivity score (WM852) was 0.

`CO[C@H](C(=O)[C@@H](O)[C@@H](C)O)[C@@H]1Cc2cc3cc(O[C@H]4C[C@@H](O[C@@H]5C[C@@H](O)[C@H](O)[C@@H](C)O5)[C@H](O)[C@@H](C)O4)c(C)c(O)c3c(O)c2C(=O)[C@H]1O[C@H]1C[C@@H](O[C@@H]2C[C@@H](O)[C@@H](O[C@@H]3C[C@](C)(O)[C@H](O)[C@@H](C)O3)[C@@H](C)O2)[C@H](O)[C@@H](C)O1` [Plicamycin] showed a drug sensitivity score (Bowes) of 26.4, a drug sensitivity score (FM-MEL-2) of 12.7 and a drug sensitivity score (FM-MEL-3) of 21.3. The drug sensitivity score (FM-MEL-6) was 7.4, the drug sensitivity score (SK-MEL-28) was 8.6 and the drug sensitivity score (SK-MEL-2) was 16.8. For the same compound, the drug sensitivity score (WM165) was 15.7 and the drug sensitivity score (WM852) was 3.2.

Compound `C=CC(=O)Nc1cccc(Oc2nc(Nc3ccc(N4CCN(C)CC4)cc3)nc3ccsc23)c1` [Olmutinib] has a drug sensitivity score (Bowes) of 0.8, a drug sensitivity score (FM-MEL-2) of 0 and a drug sensitivity score (FM-MEL-3) of 0. It also gave a drug sensitivity score (FM-MEL-6) of 0, a drug sensitivity score (SK-MEL-28) of 0 and a drug sensitivity score (SK-MEL-2) of 0. It also gave a drug sensitivity score (WM165) of 0 and a drug sensitivity score (WM852) of 0.

`CC(C)C(=O)Nc1ccc([N+](=O)[O-])c(C(F)(F)F)c1` [Flutamide] gave a drug sensitivity score (Bowes) of 0.1, a drug sensitivity score (FM-MEL-2) of 0 and a drug sensitivity score (FM-MEL-3) of 0.5. The drug sensitivity score (FM-MEL-6) was 0, the drug sensitivity score (SK-MEL-28) was 0 and the drug sensitivity score (SK-MEL-2) was 0. The drug sensitivity score (WM165) was 0 and the drug sensitivity score (WM852) was 0.5.

`CCN1C(=O)CNc2ncc(-c3ccc(-c4nc[nH]n4)nc3C)nc21` [CC-115] showed a drug sensitivity score (Bowes) of 8.2, a drug sensitivity score (FM-MEL-2) of 10.7 and a drug sensitivity score (FM-MEL-3) of 8.5. For the same compound, the drug sensitivity score (FM-MEL-6) was 9.5, the drug sensitivity score (SK-MEL-28) was 6.5 and the drug sensitivity score (SK-MEL-2) was 9.8. The drug sensitivity score (WM165) was 10.4 and the drug sensitivity score (WM852) was 5.

`COCCNCc1ccc(-c2cc3nccc(Oc4ccc(NC(=S)NC(=O)Cc5ccc(F)cc5)cc4F)c3s2)nc1` [Glesatinib] gave a drug sensitivity score (Bowes) of 0, a drug sensitivity score (FM-MEL-2) of 0.4 and a drug sensitivity score (FM-MEL-3) of 0. The drug sensitivity score (FM-MEL-6) was 0, the drug sensitivity score (SK-MEL-28) was 0 and the drug sensitivity score (SK-MEL-2) was 0. The drug sensitivity score (WM165) was 0 and the drug sensitivity score (WM852) was 0.

In the case of `C[C@H]1CN(C2COC2)CCN1c1ccc(Nc2cc(-c3ccnc(N4CCn5c(cc6c5CC(C)(C)C6)C4=O)c3CO)cn(C)c2=O)nc1` [GDC-0853], the drug sensitivity score (Bowes) is reported as 0, the drug sensitivity score (FM-MEL-2) is reported as 0 and the drug sensitivity score (FM-MEL-3) is reported as 0. It also gave a drug sensitivity score (FM-MEL-6) of 0, a drug sensitivity score (SK-MEL-28) of 0 and a drug sensitivity score (SK-MEL-2) of 0. The drug sensitivity score (WM165) was 0 and the drug sensitivity score (WM852) was 0.
